# Data as given in patent US9173935B2, “Phospholipid drug analogs” (Telormedix SA, priority 2010, dated 2015).
# Where “and” joins values, the source holds several entries; their conditions need not be identical. Equal values may be shown once. Read-outs that look alike come from different tables or passages of the source.
# Columns and labels:
# [1] = Stability of solid samples with respect to heat (80° C.), HPLC; format: physicochemical
# Protocol: Solid samples of each compound were maintained at 80° C. and analyzed by HPLC.
# [2] = test system: Raw264.7 mouse macrophage cell line; experiment: IL-6 and TNF-alpha secretion in Raw264.7 cells (ELISA); format: cell-based; conditions: 24 hours treatment, 7 doses
# Protocol: EC50 values were determined for control and each drug candidate for IL-6 and TNF-alpha secretion. […] The cells were plated in 96 well plates and treated with TLR7 agonists for 24 hours in 7 doses. The conditioned media was removed after 24 hours for ELISA analyses. The cells were subsequently assayed for viability using the XTT assay according to the guidelines from the supplier. […] The experiment was performed in quadruplicate wells for each testing series, and the supernatant pooled and measured by ELISA in triplicates. Concentrations of IL-6 and TNF-alpha were determined by ELISA from R&D Systems using the Microsoft Excel Software. The results were analyzed in Graph Pad Prism in order to prepare dose-response curves, and for determination of EC50 values.
# [3] = test system: Escherichia coli WP2 uvrA; experiment: Bacterial mutation assay, Escherichia coli; conditions: absence or presence of S9 metabolism
# Protocol: The five tester strains TA1535, TA1537, TA98, TA100 and WP2 uvrA were used. Experiments were performed both in the absence and presence of metabolic activation, using liver S9 fraction from rats pre-treated with phenobarbitone and betanaphthoflavone. SC12 was used as a solution in dimethylsulfoxide (DMSO).
# [4] = test system: receptors associated with pain-related syndromes (e.g. adenosine and sodium channel); experiment: Radioligand binding assay among 73 primary molecular targets; conditions: SC12 at fixed concentration of 30 microM
# [5] = Intravenous pharmacokinetics in the mouse; conditions: for Plasma concentration Mean ± S.D.: 1 mg/kg IV
# Protocol: An IV bolus was administered into the caudal vein at a dose of 1 mg/kg in […]. The compound weight was 2.08/10.04 ml. 24 mice were studied. […] […] Animals were sacrificed using ethyl ether at the conclusion of the experiment.
# Sample preparation: In a Sirocco filter plate, 100 microliters of plasma were added to 300 microliters of ACN/MeOH spiked with 5 microliters of IS (IV298 10 micrograms per ml) plus 10 microliters of 5% H3PO4. The plate was shaken for 10 minutes at 80 rpm and then filtered under vacuum for 5 minutes.
# Analytical method: LC/MS/MS: Premiere XE, Eluent: water (A) MeOH(B) plus 0.1% HCOOH gradient. 15% B to 100% B from 0.1 to 0.5, then isocratic 100% B up to 1.5 minutes, flow 0.8 ml/min; Column Acquity UPLC BEH C18 1.7 microm 2.1×50 mm, injection volume of 5 microliters in a T column at 50° C. ESI positive, MRM, Extractor 5V; Capillary 3.5 kV; T source 115° C.; T desolv. 450° C.
# Data analysis: Non-compartmental analysis WinNonlin 5.1; linear trapezoidal, uniform weight.
# CYP2C19 = CYP2C19 (Homo sapiens (Human), UniProt P33261); experiment: Fluorescent High Throughput P450 assay, CYP2C19; format: biochemical; conditions: substrate CEC; read-out: CYP2C19 IC50 (Mean ± S.D.)
# Protocol: (§1) Inhibition of the P450 isoforms was measured in specific assays using specific substrates that become fluorescent upon CYP metabolism. Compounds, dissolved in ACN (acetonitrile) (CYP2E1, CYP2C8, CYP2B6, CYP3A5) or DMSO (all remaining isoforms), were tested in duplicate (n=2) in concentration-response curves (eight concentrations) in a 96-well plate containing incubation/NADPH regenerating buffer. Specific isoenzymes and substrates were added and incubated at 37° C. Reactions were terminated at different times, depending on the assays, and plates read on a Fluoroskan Ascent at the appropriate emission/excitation wavelengths. Concentration-response curves performed in duplicate for known inhibitors for each isoenzyme were tested in every assay as positive control.
# CYP2B6 = CYP2B6 (Homo sapiens (Human), UniProt P20813); experiment: Fluorescent High Throughput P450 assay, CYP2B6; format: biochemical; conditions: substrate EFC; read-out: CYP2B6 IC50 (Mean ± S.D.)
# Protocol: as §1
# [6] = test system: recombinant protein antigens from Plasmodium falciparum and Mycobacterium ulcerans; experiment: Pilot immunization study with adjuvanted protein antigens; format: in vivo, mice; conditions: three s.c. immunizations
# Protocol: A pilot immunization study was conducted using Compound A and SC12 adjuvanted protein antigens. The immunization experiments were performed with two recombinant proteins expressed in E. coli. One antigen was derived from the malaria parasite Plasmodium falciparum and the other one from Mycobacterium ulcerans, which cause the ulcerative skin disease Buruli ulcer.
# [7] = Serum exposure after intravesical chronic treatment
# Protocol: Serum samples were taken at time points: day 0, 2 hours, day 1, 24 hours, and day 6, 2 hours.
# The plate was shaken for 10 minutes and filtered under vacuum (5-10 mm Hg). […] The plate was shaken for 10 minutes and filtered under vacuum (5-10 mm Hg). Samples were evaporated and re-suspended in 70 microliters of acetonitrile/methanol 1:1. […] Column: Acquity BEH C18 50×2.1 mm 1.7 micrometers; injection volume 5 microliters, T column 50° C. […] Column: Acquity BEH C8 50×2.1 mm 1.7 micrometers injection. volume 10 microliters, T column 50° C.
# RAW.264 cells = experiment: Intracellular uptake in RAW.264 cells (LC-MS); format: cell-based; conditions: 10 microM
# Protocol: 5×10^6 RAW.264 cells were adhered overnight in 10 cm tissue culture dishes. […] […] Supernatant (2 ml) and cells (pellets) were collected by trypsinization and frozen at […] for subsequent analysis by LC-MS.
# [8] = test system: AY-27 rat bladder cancer cell-line; conditions: in vivo
# [9] = test system: AY-27 rat bladder cancer cell-line
# [10] = Day 1, 24 hours, LLOQ 0.5 ng/ml SC12, 2.5 ng/ml Imiquimod
# [11] = Day 6, 2 hours, LLOQ 0.5 ng/ml SC12, 2.5 ng/ml Imiquimod
# [12] = day 12, group 1 Imiquimod 0.1%, group 2 SC12 0.38%
# Sequence of CYP2C19 (P33261 whole entry, looked up): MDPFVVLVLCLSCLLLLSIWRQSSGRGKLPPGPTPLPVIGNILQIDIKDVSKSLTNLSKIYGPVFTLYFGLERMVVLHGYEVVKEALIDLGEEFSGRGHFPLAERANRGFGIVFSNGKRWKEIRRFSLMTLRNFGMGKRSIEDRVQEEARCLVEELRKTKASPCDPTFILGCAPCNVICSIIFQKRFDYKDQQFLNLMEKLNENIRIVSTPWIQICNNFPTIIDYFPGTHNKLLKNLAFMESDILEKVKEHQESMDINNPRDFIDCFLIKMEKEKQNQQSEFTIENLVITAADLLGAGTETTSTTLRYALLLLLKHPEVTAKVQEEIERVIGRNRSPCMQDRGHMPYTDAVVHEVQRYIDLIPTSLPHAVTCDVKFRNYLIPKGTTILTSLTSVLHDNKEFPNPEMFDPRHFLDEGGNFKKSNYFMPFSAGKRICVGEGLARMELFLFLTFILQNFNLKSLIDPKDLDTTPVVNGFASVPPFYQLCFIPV
# Sequence of CYP2B6 (P20813 whole entry, looked up): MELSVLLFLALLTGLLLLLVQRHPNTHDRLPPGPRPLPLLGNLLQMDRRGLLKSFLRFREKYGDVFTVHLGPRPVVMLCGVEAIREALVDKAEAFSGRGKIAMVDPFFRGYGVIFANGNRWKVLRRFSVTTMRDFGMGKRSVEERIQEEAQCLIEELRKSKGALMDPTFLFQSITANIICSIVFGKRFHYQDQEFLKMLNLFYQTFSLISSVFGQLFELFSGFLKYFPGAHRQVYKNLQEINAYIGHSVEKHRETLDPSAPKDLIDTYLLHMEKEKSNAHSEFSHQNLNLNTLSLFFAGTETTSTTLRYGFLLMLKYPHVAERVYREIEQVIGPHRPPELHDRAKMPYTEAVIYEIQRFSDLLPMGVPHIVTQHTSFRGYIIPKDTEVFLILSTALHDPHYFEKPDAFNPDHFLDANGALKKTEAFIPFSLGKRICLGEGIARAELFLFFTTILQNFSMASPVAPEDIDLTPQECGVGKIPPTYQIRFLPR
compound,measurement,setting,value
CCCCCCCCCCCC(=O)OCC(COP(=O)(O)OCCNC(=O)c1ccc(Cn2c(=O)[nH]c3c(N)nc(OCCOC)nc32)cc1)OC(=O)CCCCCCCCCCC (stereo not drawn) [SC12],HPLC purity of solid sample,[1]; After 2 hrs at 80° C.,90% HPLC
same,HPLC purity of solid sample,[1]; After 22 hrs at 80° C.,88% HPLC
same,HPLC purity of solid sample,[1]; t = 0,90% HPLC
same,EC50,[2]; read-out: EC 50 IL 6,0.042 µM
same,EC50,[2]; read-out: EC 50 TNF-alpha,0.041 µM
same,Toxicity to tester strains,[3]; 50.0-5000 micrograms/plate,No toxicity was observed
same,Reverse mutation,[3]; up to 5000 micrograms/plate,does not induce reverse mutation
same,Binding to receptors associated with pain-related syndromes,[4],did not bind
same,AUC INF obs,"[5]; 1 mg/kg IV bolus, plasma",12878 ng·min/mL
same,AUClast,"[5]; 1 mg/kg IV bolus, plasma",11744 ng·min/mL
same,C0,"[5]; 1 mg/kg IV bolus, plasma",2664 ng/mL
same,CI,"[5]; 1 mg/kg IV bolus, plasma",77.7 mL/min/kg
same,Clast,"[5]; 1 mg/kg IV bolus, plasma",6 ng/mL
same,Cmax,"[5]; 1 mg/kg IV bolus, plasma",541 ng/mL
same,MRT,"[5]; 1 mg/kg IV bolus, plasma",32 min
same,T ½,"[5]; 1 mg/kg IV bolus, plasma",130 min
same,Tlast,"[5]; 1 mg/kg IV bolus, plasma",120 min
same,Tmax,"[5]; 1 mg/kg IV bolus, plasma",5 min
same,Vss,"[5]; 1 mg/kg IV bolus, plasma",2.5 L/kg
same,Plasma concentration Mean ± S.D.,[5]; 5 min,540.70 ± 179.99 ng/mL
same,Plasma concentration Mean ± S.D.,[5]; 15 min,22.27 ± 3.16 ng/mL
same,Plasma concentration Mean ± S.D.,[5]; 30 min,10.00 ± 1.68 ng/mL
same,Plasma concentration Mean ± S.D.,[5]; 60 min,7.62 ± 0.72 ng/mL
same,Plasma concentration Mean ± S.D.,[5]; 120 min,6.05 ± 0.78 ng/mL
same,Plasma concentration Mean ± S.D.,"[5]; 240 min, LLOQ 5 ng/ml",<LLOQ
same,Plasma concentration Mean ± S.D.,"[5]; 480 min, LLOQ 5 ng/ml",<LLOQ
same,Plasma concentration Mean ± S.D.,"[5]; 1440 min, LLOQ 5 ng/ml",<LLOQ
same,IC50,CYP2C19,> 100 µM
same,IC50,CYP2B6,> 100 µM
same,"Local side effects (swelling, ulcerations)",[6]; 10 nMol adjuvant,No local side effects
same,IgG responses against target antigens,[6]; 20 micrograms antigen with 10 nMol adjuvant,all 20 immunized mice had developed IgG responses
same,"Levels in serum, Mean ± S.D.","[7]; Day 0, 2 hours",0.5 ± 0.5 ng/mL
same,"Levels in serum, individual mice","[7]; Day 0, 2 hours, intravesical Imiquimod 208 nmol or SC12 206.5 nmol, LLOQ 0.5 ng/ml SC12, 2.5 ng/ml Imiquimod",<LLOQ (2×) and 1.0 ng/ml and 0.5 ng/ml
same,"Levels in serum, Mean ± S.D.",[7]; [10],<LLOQ
same,"Levels in serum, individual mice",[7]; [10],<LLOQ
same,"Levels in serum, Mean ± S.D.",[7]; [11],<LLOQ
same,"Levels in serum, individual mice",[7]; [11],<LLOQ
same,Intracellular Concentration,RAW.264 cells; incubation 1 hours,18.5 % of total
same,Intracellular Concentration,RAW.264 cells; incubation 6 hours,20.6 % of total
same,Intracellular Concentration,RAW.264 cells; incubation 18 hours,21.4 % of total
same,Signs of toxicity,[8],No signs of toxicity
same,Number of rats with a tumor positive bladder,[9]; day 12,8 of 14
same,"Rats with pT2 Tumor, number (% of 14)",[9]; [12],7 (50.0%)
same,"Tumor free rats, number (% of 14)",[9]; [12],6 (42.9%)
same,"Rats with pTa Tumor, number (% of 14)","[9]; day 12, group 2 SC12 0.38%",1 (7.1%)
same,Mean weight of the rat bladders,"[9]; day 12, intravesical 0.5 ml on day 2 and 5, group 1 Imiquimod 0.1%, group 2 SC12 0.38%",0.1014 grams
same,Mean number of tumors per rat bladder,"[9]; group 1 Imiquimod 0.1%, group 2 SC12 0.38%",1.36
same,Mean invasion depth,"[9]; tumor positive bladders, group 1 Imiquimod 0.1%, group 2 SC12 0.38%",1.4250 mm
